The record followed here is patent US20230024096A1, “BIFUNCTIONAL COMPOUNDS FOR THE TREATMENT OF CANCER” (Hoffmann-La Roche Inc., priority 2019, published 2023).

Broadly, the Emax is the greatest response seen or fitted, relative to the assay's reference.

This experiment addresses T1, SMARCA2 (Homo sapiens, UniProt P51531).
T1 construct: endogenous in cells; host or cells: HT1080 (CRISPR HiBiT knock-in clone, generated in house)
Nature of the experiment: SMARCA2 HiBiT degradation assay (cellular). The class given is cell-based. Particulars: table head names A549; for DC50: 6 h incubation, HiBiT-tagged SMARCA2, luminescence read-out, read-out: HiBit A549 SMARCA2 IP (nM) 6 h; for Emax: A549, 6 h incubation, Emax = amount of residual protein remaining in the cell following compound treatment. Background: The HiBiT peptide binds its large partner to form an active luciferase.

T1 sequence (P51531 whole entry): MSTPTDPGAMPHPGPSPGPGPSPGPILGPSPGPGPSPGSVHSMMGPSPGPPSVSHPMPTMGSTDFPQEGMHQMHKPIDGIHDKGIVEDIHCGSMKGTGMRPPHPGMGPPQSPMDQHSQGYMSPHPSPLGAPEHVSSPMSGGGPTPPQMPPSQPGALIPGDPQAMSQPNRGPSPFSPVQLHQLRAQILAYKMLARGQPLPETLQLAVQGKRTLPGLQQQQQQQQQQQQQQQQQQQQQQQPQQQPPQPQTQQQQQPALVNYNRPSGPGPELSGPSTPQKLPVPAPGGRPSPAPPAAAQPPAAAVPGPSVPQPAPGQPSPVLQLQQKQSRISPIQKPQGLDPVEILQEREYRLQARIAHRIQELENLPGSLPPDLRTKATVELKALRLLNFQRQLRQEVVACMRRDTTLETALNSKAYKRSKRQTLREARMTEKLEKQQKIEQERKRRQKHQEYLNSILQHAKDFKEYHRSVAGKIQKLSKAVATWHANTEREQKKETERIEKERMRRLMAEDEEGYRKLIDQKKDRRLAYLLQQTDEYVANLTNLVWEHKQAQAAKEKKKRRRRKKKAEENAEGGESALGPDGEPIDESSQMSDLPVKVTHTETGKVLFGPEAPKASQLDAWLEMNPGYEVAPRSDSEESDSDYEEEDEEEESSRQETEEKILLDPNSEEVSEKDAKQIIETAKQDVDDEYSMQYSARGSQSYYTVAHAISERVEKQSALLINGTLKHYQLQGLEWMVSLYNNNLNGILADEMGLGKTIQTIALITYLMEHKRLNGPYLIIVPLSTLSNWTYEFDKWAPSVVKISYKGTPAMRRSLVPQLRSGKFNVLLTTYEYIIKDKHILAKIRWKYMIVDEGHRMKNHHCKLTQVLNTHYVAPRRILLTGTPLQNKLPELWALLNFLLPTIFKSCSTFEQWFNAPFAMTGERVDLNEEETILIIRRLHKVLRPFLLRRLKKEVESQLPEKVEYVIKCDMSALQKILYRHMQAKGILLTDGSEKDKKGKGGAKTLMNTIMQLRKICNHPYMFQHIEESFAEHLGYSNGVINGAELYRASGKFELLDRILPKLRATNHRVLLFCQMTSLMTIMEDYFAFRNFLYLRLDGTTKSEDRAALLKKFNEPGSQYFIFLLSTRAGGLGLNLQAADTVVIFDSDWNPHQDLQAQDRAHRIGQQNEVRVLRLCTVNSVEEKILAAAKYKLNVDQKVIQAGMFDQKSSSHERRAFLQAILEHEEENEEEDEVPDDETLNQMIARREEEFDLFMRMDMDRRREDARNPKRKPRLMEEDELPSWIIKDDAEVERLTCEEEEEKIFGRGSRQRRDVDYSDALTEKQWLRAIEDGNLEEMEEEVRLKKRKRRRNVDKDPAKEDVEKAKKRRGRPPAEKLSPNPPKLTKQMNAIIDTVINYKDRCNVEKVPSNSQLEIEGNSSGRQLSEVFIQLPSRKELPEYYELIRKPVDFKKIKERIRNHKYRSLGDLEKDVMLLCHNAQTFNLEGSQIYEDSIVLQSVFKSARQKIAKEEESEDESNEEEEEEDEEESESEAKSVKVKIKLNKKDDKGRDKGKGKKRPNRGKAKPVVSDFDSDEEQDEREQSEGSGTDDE

With `Nc1nnc(-c2ccccc2O)cc1N1CC2CCC(C1)N2c1cccc(CC2CCN(C(=O)C3CCN(c4ccc5c(c4)C(=O)N(C4CCC(=O)NC4=O)C5=O)CC3)CC2)c1` (racemic) [Example 70, rac-5-[4-[4-[[3-[3-[3-amino-6-(2-hydroxyphenyl)pyridazin-4-yl]-3,8-diazabicyclo[3.2.1]octan-8-yl]phenyl]methyl]piperidine-1-carbonyl]-1-piperidyl]-2-(2,6-dioxo-3-piperidyl)isoindoline-1,3-dione], the DC50 amounted to 40 nM and the Emax was 42%.

As to `Nc1nnc(-c2ccccc2O)cc1N1CCC(C(=O)N2CC3(CN(CC4CCN(c5ccc6c(c5)C(=O)N(C5CCC(=O)NC5=O)C6=O)CC4)C3)C2)(c2ccccc2)CC1` (centres unmarked) [Example 159, 5-(4-((6-(1-(3-amino-6-(2-hydroxyphenyl)pyridazin-4-yl)-4-phenylpiperidine-4-carbonyl)-2,6-diazaspiro[3.3]heptan-2-yl)methyl)piperidin-1-yl)-2-(2,6-dioxopiperidin-3-yl)isoindoline-1,3-dione], the DC50 was determined as 11 nM and the Emax was 27%.

For `Nc1nnc(-c2ccccc2O)cc1OC1CCCN(c2ccc(N3CCN(CCCCCCCCCn4cc(CNc5cccc6c5C(=O)N(C5CCC(=O)NC5=O)C6=O)nn4)CC3)cc2)C1` (centres unmarked) [Example 37, 4-[[1-[9-[4-[4-[3-[3-amino-6-(2-hydroxyphenyl)pyridazin-4-yl]oxy-1-piperidyl]phenyl]piperazin-1-yl]nonyl]triazol-4-yl]methylamino]-2-(2,6-dioxo-3-piperidyl)isoindoline-1,3-dione], the DC50 turned out to be 57 nM and the Emax was determined as 34%.

Regarding `CC(Oc1cccc2c1C(=O)N(C1CCC(=O)NC1=O)C2=O)c1cn(CCCCCCOCCN2CCN(c3ccc(N4CCC[C@H](Oc5cc(-c6ccccc6O)nnc5N)C4)cc3)CC2)nn1` (mixture of isomers) [Example 202, 2-(2,6-dioxo-3-piperidyl)-4-[1-[1-[6-[2-[4-[4-[rac-(3S)-3-[3-amino-6-(2-hydroxyphenyl)pyridazin-4-yl]oxy-1-piperidyl]phenyl]piperazin-1-yl]ethoxy]hexyl]triazol-4-yl]ethoxy]isoindoline-1,3-dione], the DC50 came to 107 nM and the Emax was found to be 44%.

For `Nc1nnc(-c2cc(F)ccc2O)cc1OC1CCCN(c2ccc(N3CCN(C(=O)CCCCCCCCn4cc(CNc5cccc6c5C(=O)N(C5CCC(=O)NC5=O)C6=O)nn4)CC3)cc2)C1` (centres unmarked) [Example 64, 4-[[1-[9-[4-[4-[3-[3-amino-6-(5-fluoro-2-hydroxy-phenyl)pyridazin-4-yl]oxy-1-piperidyl]phenyl]piperazin-1-yl]-9-oxo-nonyl]triazol-4-yl]methylamino]-2-(2,6-dioxo-3-piperidyl)isoindoline-1,3-dione], the DC50 came out at 82 nM and the Emax is 52%.

Regarding `Nc1nnc(-c2cc(F)cc(F)c2O)cc1N1CCC(CNC(=O)CCCN2CCC(c3ccc(OC4CCC(=O)NC4=O)cc3)CC2)(c2ccccc2)CC1` (centres unmarked) [Example 182, N-[[1-[3-amino-6-(3,5-difluoro-2-hydroxy-phenyl)pyridazin-4-yl]-4-phenyl-4-piperidyl]methyl]-4-[4-[4-[(2,6-dioxo-3-piperidyl)oxy]phenyl]-1-piperidyl]butanamide], the DC50 turned out to be 103 nM and the maximal effect (Emax) was found to be 47%.

As for `Nc1nnc(-c2ccccc2O)cc1N1CC2CCC(C1)N2c1cccc(OCCN2CCN(C(=O)CCCCCCNc3cccc4c3C(=O)N(C3CCC(=O)NC3=O)C4=O)CC2)c1` (centres unmarked) [Example 1, 4-[[7-[4-[2-[3-[3-[3-amino-6-(2-hydroxyphenyl)pyridazin-4-yl]-3,8-diazabicyclo[3.2.1]octan-8-yl]phenoxy]ethyl]piperazin-1-yl]-7-oxo-heptyl]amino]-2-(2,6-dioxo-3-piperidyl)isoindoline-1,3-dione], the DC50 came out at 68 nM and the Emax is 55%.
